Assay: gradient 5% acetonitrile 3 min, to 50% in 2 min, to 85% in 15 min, held 3 min, 100 µL/min
Settings: column: Zorbax Extend-C18 2.1 x 50 mm; eluents: water / acetonitrile, 0.1% formic acid
Method in brief: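 Standards, all pure, were combined into mixtures of ~100 molecules and run at 100 μL/min on a Zorbax Extend-C18 column (2.1 × 50 mm, 1.8 μm) with water and acetonitrile, each containing 0.1% formic acid. A coupled quadrupole time-of-flight mass spectrometer operated in positive and negative ionization mode. Retention time values come from computationally picked adduct peaks, each inspected manually.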

RP-LC retention time [s] | SMILES
752 | COC(=O)c1cnc2nc(C)ccc2c1Nc1ccc(C)cc1Cl
975 | COc1ccc(Cn2c(C(C)C)nc3sc4ccccc4c(=O)c3c2=O)cc1
601 | Cc1ccc(CNC(=O)C2=CCN(Cc3ccccc3)CC2)o1
704 | O=C(Nc1ccc2ncnc(N3CCCCC3)c2c1)c1ccc(Br)o1
581 | CCc1ccc(NC(=O)N2CCc3[nH]cnc3C2c2ccncc2)cc1 (configuration not stated)
942 | Cc1ccc(NC(=O)N2CCCC(C)(C(=O)NCc3ccccc3C)C2)cc1 (configuration not stated)
780 | Cc1ccc(CN2C(=O)COC[C@H]2C(=O)Nc2ccc3c(c2)OCCO3)cc1
693 | Cn1nccc1C(=O)N1CC2CN(S(=O)(=O)c3cccc(F)c3)CC(C1)O2
577 | CC(=O)N1CCCC1CCc1ncc(C)n1C(C)C (configuration not stated)
927 | O=C(CCc1conc1-c1ccc(F)cc1)NC1CCCCC1
829 | COc1ccc(Cl)cc1S(=O)(=O)N(C)CC1(C)CCOCC1
934 | CCc1nc2cc(N3CCCC(C(=O)Nc4ccc(OC)cc4OC)C3)cnc2nc1CC (configuration not stated)
1300 | COC(=O)c1ccc2c(=O)n(CCc3ccccc3)c(N3CCCCCC3)nc2c1
1050 | COc1ccc(C)cc1NC(=O)Cn1nc2c(Oc3cc(C)cc(C)c3)nccn2c1=O
609 | Cc1noc(C2(NC(=O)/C=C/c3cccnc3)CCCCC2)n1
1320 | COc1cccc(-c2nc(C3CCN(S(=O)(=O)c4c(C)cc(C)cc4C)CC3)no2)c1
700 | COc1ccc(OC)c(CNC(=O)c2ccc(-c3cncnc3)nc2)c1
1040 | COc1ccc(NC(=O)c2nnn(-c3ccc(C)c(F)c3)c2C)cc1Cl
800 | CCCNC(=O)C1Cc2cc(S(=O)(=O)N3CCCCC3)ccc2N1C(=O)CC (configuration not stated)
594 | Cc1nn(-c2ccc(N3CCCCC3)nn2)c(C)c1CCC(=O)N1CCN(c2ccccn2)CC1
625 | COc1ccc(Cl)c2c(=O)c3c([nH]c12)CCN(CC(=O)Nc1cc(F)ccc1F)C3
870 | CCC(C)NC(=O)CN1c2ccc(F)cc2-c2ccccc2S1(=O)=O (configuration not stated)

RP-LC retention time [s] | SMILES
651 | O=C(Cc1nnc(-c2cccc(F)c2)o1)N1CCOCC1
681 | CCn1cnc(S(=O)(=O)N2CCC(C(=O)Nc3ccc4c(c3)OCCO4)CC2)c1
1090 | CC1CC(C)CN(S(=O)(=O)c2cccc(-c3cn4cc(Cl)ccc4n3)c2)C1 (configuration not stated)
584 | CCCn1cnc2ccc(-c3noc(C(C)NC(=O)c4ccco4)n3)cc21 (configuration not stated)
966 | O=C(CSc1ccc(NC(=O)c2ccco2)cc1)Nc1nc(-c2ccccc2)cs1
626 | COCc1nc(CCNC(=O)NCC(C)C)no1
795 | CCN1C(=O)c2cccnc2Sc2cc(NC(=O)C(C)(C)C)ccc21
1130 | CCOc1ccc(-c2noc(CN3C(=O)COc4ccc(Cl)cc43)n2)cc1
589 | COc1ccc(NC(=O)CCNc2cnc3cnccn23)cc1F
875 | O=C(c1ccco1)N1CCCC1c1nc(-c2ccc(F)cc2)no1 (configuration not stated)
648 | CC(=O)N1CCc2ccccc2C1C(=O)NCc1cc(F)ccc1F (configuration not stated)
682 | COc1ccc2c(c1)C=C(C(=O)N1CCN(Cc3ccc(OC)c(OC)c3OC)CC1)CO2
683 | Cc1ccc(F)cc1NC(=O)Cc1nnc(-c2cnccn2)o1
701 | COc1ccc(C(=O)N2C[C@@H]3C[C@H](NC(=O)c4cccs4)[C@H]2C3)c(OC)c1
714 | Cc1csc(-c2cc(S(=O)(=O)N3CCN(C4CCCCC4)CC3)c(C)s2)n1
660 | O=C(NCc1nc2ccccc2n1CCCCOc1ccccc1Cl)c1ccco1
851 | COc1ccc2[nH]cc(CCNC(=O)C3CCN(S(=O)(=O)c4ccc5c(ccn5C)c4)CC3)c2c1
905 | Cc1ccc(-c2nc(CCN(C)C(=O)NCc3ccccc3)no2)cc1
885 | FC(F)(F)c1nc(N2CCN(Cc3ccccc3)CC2)nc2c1CCCCC2
967 | CC1=NS(=O)(=O)N(C)C=C1C(=O)OCCc1ccccc1
1210 | CCCn1cc(CCNS(=O)(=O)c2ccc(C3CCCCC3)cc2)c2cccnc21
685 | Cc1ccc(NC(=O)N2CCCC(Cn3c(C4CC4)nc4cccnc43)C2)cc1 (configuration not stated)

RP-LC retention time [s] | SMILES
813 | CCOCCCNC(=O)c1nc(Nc2ccc(CC)cc2)c2ccccc2n1
885 | Cn1c(=O)c2cc(C(=O)Nc3ccccc3)cnc2n(-c2ccc(F)cc2)c1=O
858 | COc1cc(OC)cc(C(=O)Nc2ccc3c(c2)Sc2ncccc2C(=O)N3C)c1
621 | CCN(CC)CCCNC(=O)C(C)n1nc(C)c2c(C)n(-c3ccccc3)nc2c1=O (configuration not stated)
694 | CCn1cc(C)c(C(=O)O)c1CC(=O)N1CCCCC1
676 | Cc1cccc(-c2nc(-c3ccc4c(c3)ncn4CCN3CCCC3)no2)c1
951 | CC(C)S(=O)(=O)c1cc2c(cc1NC(=O)c1ccc(Br)cc1)n(C)c(=O)n2C
624 | Cc1noc(-c2ccc(-n3ncc(C(=O)N4CCN(c5ccccn5)CC4)c3C)nc2)n1
594 | Cn1cnc(S(=O)(=O)N2CCCCC2c2nc(-c3cccnc3)n[nH]2)c1 (configuration not stated)
590 | Cc1cnc(CC2CCN(S(=O)(=O)c3cn(C)cn3)C2)n1Cc1ccccc1 (configuration not stated)
1110 | Cc1cccc(-c2nc(C)c3c(n2)N(Cc2ccco2)C(=O)CC3)c1
1050 | Cc1cc(NC(=O)c2csc(-c3cn(C)c4ncccc34)n2)ccc1F
797 | COc1ccc(-c2cn3c(CC(=O)N4c5ccccc5CC4C)csc3n2)cc1OC (configuration not stated)
801 | O=S(=O)(Nc1ccc(F)cc1)c1cccnc1N1CCOCC1
557 | CCN1CCN(CCCNC(=O)C2CCCN(c3ncnc4onc(C)c34)C2)CC1 (configuration not stated)
581 | COc1ccc(NC(=O)NCC2(CO)CC2)cc1OC
1040 | COC(=O)c1c(C)c(C(=O)C(C)N(Cc2ccc(F)cc2)C(=O)C2CCC2)c(C)n1C (configuration not stated)
815 | Cc1cc(C)cc(C(=O)N2CCN(S(=O)(=O)c3cc4c5c(c3)CCC(=O)N5CCC4)CC2)c1
616 | O=C(C1CCN(c2cnc(N3CCCC3)nc2)CC1)N1CCCCC1
990 | COc1ccc(-c2cc3c(=O)n(Cc4nc(-c5cccc(OC)c5OC)oc4C)ccn3n2)cc1

SMILES | RP-LC retention time [s]
O=C(CN1CC=C(c2cnn(-c3ccccc3)c2)CC1)NCc1ccccn1 | 594
CN1CCN(c2nc3ccccc3nc2Cl)CC1 | 650
CN(C)[C@@H]1CN(C(=O)COc2ccccc2)C[C@H]1CO | 546

— the METLIN SMRT retention time set (Domingo-Almenara et al. 2019)
